Laboratory results reported in PubChem BioAssay AID248 (DTP/NCI, 2004).
Several values for one entry are separate records, joined by “and”; a condition that tells them apart may be missing. Equal values may be shown once. Inconclusive results and toxic doses are left out. No stated cut-off is given here; in the data, active means T/C of 150% or more; inactive means T/C below 125%.

Test system: L1210 leukemia ip in BDF1 mice, survival T/C
Assay: NCI In Vivo Anticancer Drug Screen. Data for tumor model L1210 Leukemia (intraperitoneal) in B6D2F1 (BDF1) mice
Conditions: endpoint: mean survival time, higher = longer survival
Outline: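 Ratio derived from survival: compound-dosed mice over vehicle-dosed mice, all bearing a transplantable tumor.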

[1] = dose: 100.0 mg/kg/injection, schedule: Q01DX009 (ip), vehicle: saline with Tween-80
[2] = dose: 100.0 mg/kg/injection, schedule: Q04DX003 (ip), vehicle: saline with Tween-80
[3] = dose: 200.0 mg/kg/injection, schedule: Q01DX009 (ip), vehicle: saline with Tween-80
[4] = dose: 200.0 mg/kg/injection, schedule: Q04DX003 (ip), vehicle: saline with Tween-80
[5] = dose: 400.0 mg/kg/injection, schedule: Q01DX009 (ip), vehicle: saline with Tween-80
[6] = dose: 400.0 mg/kg/injection, schedule: Q04DX003 (ip), vehicle: saline with Tween-80
[7] = dose: 100.0 mg/kg/injection, schedule: Q01DX009 (ip), vehicle: saline
[8] = dose: 100.0 mg/kg/injection, schedule: Q04DX003 (ip), vehicle: saline
[9] = dose: 200.0 mg/kg/injection, schedule: Q04DX003 (ip), vehicle: saline
[10] = dose: 50.0 mg/kg/injection, schedule: Q01DX001 (ip), vehicle: saline
[11] = dose: 100.0 mg/kg/injection, schedule: Q01DX001 (ip), vehicle: saline
[12] = dose: 200.0 mg/kg/injection, schedule: Q01DX001 (ip), vehicle: saline

Measured: T/C

Nc1nc(N)c(C=O)c(Nc2ccc(Br)cc2)n1
inactive: dose: 50.0 mg/kg/injection, schedule: Q01DX001 (ip), vehicle: alcohol 110 % of control | dose: 100.0 mg/kg/injection, schedule: Q01DX001 (ip), vehicle: alcohol 96 % of control | dose: 200.0 mg/kg/injection, schedule: Q01DX001 (ip), vehicle: alcohol 94 % of control | dose: 400.0 mg/kg/injection, schedule: Q01DX001 (ip), vehicle: alcohol 90 % of control

CN(Cc1cccc(Cl)c1)C(=O)Nc1ccccc1Cl
inactive: dose: 100.0 mg/kg/injection, schedule: Q04DX002 (ip), vehicle: Klucel (hydroxypropylcellulose) (HPC) 104 % of control | dose: 200.0 mg/kg/injection, schedule: Q04DX002 (ip), vehicle: Klucel (hydroxypropylcellulose) (HPC) 104 % of control | dose: 400.0 mg/kg/injection, schedule: Q04DX002 (ip), vehicle: Klucel (hydroxypropylcellulose) (HPC) 104 % of control

Cn1c2ccccc2c2nnc(NCCCO)nc21
inactive: dose: 100.0 mg/kg/injection, schedule: Q04DX002 (ip), vehicle: saline with Tween-80 86 % of control | dose: 200.0 mg/kg/injection, schedule: Q04DX002 (ip), vehicle: saline with Tween-80 104 % of control | dose: 400.0 mg/kg/injection, schedule: Q04DX002 (ip), vehicle: saline with Tween-80 97 % of control

C1=CC2C3CCC(C3)C2C1 (stereo unspecified)
inactive: dose: 50.0 mg/kg/injection, schedule: Q01DX009 (ip), vehicle: saline with Tween-80 96 % of control | [1] 102 % of control and 88 % of control | [2] 98 % of control and 101 % of control | [3] 94 % of control and 108 % of control | [4] 93 % of control and 101 % of control | [5] 95 % of control | [6] 93 % of control and 96 % of control

CC(=O)OC1CCCC2C(=O)c3c(c(O)c4ccccc4c3O)C(=O)C12 (stereo unspecified)
inactive: [7] 98 % of control | [8] 96 % of control | dose: 200.0 mg/kg/injection, schedule: Q01DX009 (ip), vehicle: saline 98 % of control | [9] 96 % of control | dose: 400.0 mg/kg/injection, schedule: Q01DX009 (ip), vehicle: saline 101 % of control | dose: 400.0 mg/kg/injection, schedule: Q04DX003 (ip), vehicle: saline 93 % of control

CCCCOC1CC2c3ccccc3C1c1cccc[n+]12 (stereo unspecified)
inactive: dose: 12.5 mg/kg/injection, schedule: Q01DX009 (ip), vehicle: saline 111 % of control and 102 % of control | dose: 12.5 mg/kg/injection, schedule: Q04DX003 (ip), vehicle: saline 94 % of control and 101 % of control and 100 % of control | dose: 25.0 mg/kg/injection, schedule: Q01DX009 (ip), vehicle: saline 104 % of control and 98 % of control | dose: 25.0 mg/kg/injection, schedule: Q04DX003 (ip), vehicle: saline 100 % of control and 101 % of control | dose: 50.0 mg/kg/injection, schedule: Q04DX003 (ip), vehicle: saline 94 % of control and 88 % of control and 103 % of control

O=C1c2ccccc2C(=O)N1N1C(=O)c2ccccc2C1=O
inactive: [1] 96 % of control | [2] 97 % of control | [3] 91 % of control | [4] 100 % of control | [5] 96 % of control | [6] 97 % of control

COC(=O)C1CC(=O)C2(C)CCc3c(ccc4cc(OC)ccc34)C12 (stereo unspecified)
inactive: dose: 100.0 mg/kg/injection, schedule: Q01DX009 (sc), vehicle: steriod suspending solution 103 % of control | dose: 100.0 mg/kg/injection, schedule: Q04DX003 (sc), vehicle: steriod suspending solution 102 % of control | dose: 200.0 mg/kg/injection, schedule: Q01DX009 (sc), vehicle: steriod suspending solution 93 % of control | dose: 200.0 mg/kg/injection, schedule: Q04DX003 (sc), vehicle: steriod suspending solution 86 % of control | dose: 400.0 mg/kg/injection, schedule: Q01DX009 (sc), vehicle: steriod suspending solution 88 % of control | dose: 400.0 mg/kg/injection, schedule: Q04DX003 (sc), vehicle: steriod suspending solution 94 % of control

CCOC(=O)c1nc[nH]c1N=[N+]=[N-]
inactive: dose: 100.0 mg/kg/injection, schedule: Q01DX001 (ip), vehicle: other 106 % of control | dose: 200.0 mg/kg/injection, schedule: Q01DX001 (ip), vehicle: other 97 % of control | dose: 400.0 mg/kg/injection, schedule: Q01DX001 (ip), vehicle: other 95 % of control

CC1(C)CC2(OC2c2cccc(Cl)c2)C(=O)c2ccccc21 (stereo unspecified)
inactive: [2] 89 % of control | [4] 94 % of control | [6] 89 % of control

COc1cc2ccc(CC3NCCc4cc5c(cc43)OCO5)cc2cc1OC (stereo unspecified)
inactive: dose: 100.0 mg/kg/injection, schedule: Q01DX009 (ip), vehicle: saline sonified 93 % of control | dose: 100.0 mg/kg/injection, schedule: Q04DX003 (ip), vehicle: saline sonified 88 % of control | dose: 200.0 mg/kg/injection, schedule: Q01DX009 (ip), vehicle: saline sonified 98 % of control | dose: 200.0 mg/kg/injection, schedule: Q04DX003 (ip), vehicle: saline sonified 88 % of control | dose: 400.0 mg/kg/injection, schedule: Q01DX009 (ip), vehicle: saline sonified 93 % of control | dose: 400.0 mg/kg/injection, schedule: Q04DX003 (ip), vehicle: saline sonified 95 % of control

C=CCN1CCC(C(=O)OC)(c2ccccc2)CC1
inactive: [8] 96 % of control | [9] 103 % of control

CCCCCCCCOC(=O)c1[nH]cnc1N
inactive: [10] 100 % of control | [11] 96 % of control | [12] 96 % of control

O=[n+]1ccn2ccccc2c1
inactive: dose: 50.0 mg/kg/injection, schedule: Q01DX009 (ip), vehicle: saline 100 % of control | [7] 102 % of control | dose: 100.0 mg/kg/injection, schedule: Q04DX003 (ip), vehicle: Klucel (hydroxypropylcellulose) (HPC) 98 % of control | dose: 200.0 mg/kg/injection, schedule: Q04DX003 (ip), vehicle: Klucel (hydroxypropylcellulose) (HPC) 104 % of control

CCCC(=O)Nc1ccc(C(=O)OCC)cc1
inactive: dose: 100.0 mg/kg/injection, schedule: Q04DX002 (ip), vehicle: saline 93 % of control | dose: 200.0 mg/kg/injection, schedule: Q04DX002 (ip), vehicle: saline 100 % of control | dose: 400.0 mg/kg/injection, schedule: Q04DX002 (ip), vehicle: saline 107 % of control

O=[N+]([O-])c1cccc(N(CCO)CCO)c1
inactive: [10] 96 % of control | [11] 106 % of control | [12] 93 % of control | dose: 400.0 mg/kg/injection, schedule: Q01DX001 (ip), vehicle: saline 100 % of control

Cc1ccc(Nc2ccc(Nc3ccc(C)cc3)c3c2C(=O)c2c(O)ccc(O)c2C3=O)cc1
inactive: dose: 200.0 mg/kg/injection, schedule: Q01DX001 (ip), vehicle: Klucel (hydroxypropylcellulose) (HPC) 90 % of control | dose: 400.0 mg/kg/injection, schedule: Q01DX001 (ip), vehicle: Klucel (hydroxypropylcellulose) (HPC) 97 % of control

O=C(Nc1cccc(C2=NCCCN2)c1)c1ccc(C(=O)Nc2cccc(C3=NCCCN3)c2)cc1
inactive: dose: 0.1 mg/kg/injection, schedule: Q01DX Z (ip), vehicle: saline 95 % of control | dose: 0.2 mg/kg/injection, schedule: Q01DX Z (ip), vehicle: saline 100 % of control | dose: 0.3 mg/kg/injection, schedule: Q01DX Z (ip), vehicle: saline 97 % of control | dose: 0.5 mg/kg/injection, schedule: Q01DX Z (ip), vehicle: saline 97 % of control

CC(CN1c2ccccc2Sc2ccccc21)[N+](C)(C)C (stereo unspecified)
inactive: [11] 88 % of control

CCOC(=O)c1c(C)[nH]c2c1C(=O)C(=O)C=C2
inactive: [11] 90 % of control
